Experimental data reported in paper PMC10460728 (Journal of Pharmacokinetics and Pharmacodynamics, 2023).
pEC50, pIC50, pKi: −log10 of the molar value. Each block holds one molecule with its values, some of them ahead of it.

Experiments:
[1] = test system: CYP1A2; conditions: human, hepatocytes, 50 µmol/L
Experimental: (§1) Hepatocytes were cultured according to previously described methods [8]. […] Single-stranded cDNA was prepared from RNA with the RT Master Mix using the AB 7900HT Fast Real Time PCR System thermocycling program. Quantitative RT-PCR was carried out in triplicate. Relative quantification measures the change in mRNA expression in a test sample relative to that in a control sample (e.g., DMSO). This method assumes that the efficiency of the target amplification and the efficiency of the endogenous control amplification are approximately equal.
(§2) The maximal fold induction (Indmax) and half concentration to reach Indmax (IndC50) were determined based on the following equation: Foldinduction=1+Indmax-1×Ct/IndC50+Ct where Ct is the test drug concentration.

[2] = test system: P-gp; assay: P-gp mRNA induction in cultured human hepatocytes; format: cell-based; conditions: 50 µmol/L
[3] = once-daily oral 160 mg enzalutamide for 49 days; mean
[4] = PBPK models of enzalutamide and M2 (Simcyp)
Source text: Many of the physicochemical properties and plasma protein binding data were obtained internally and also referenced from FDA documents, which are available from the FDA website. […] Accordingly, the solution formulation option in the Simcyp model was used.
The PBPK models of CYP2C8 inhibitor (gemfibrozil), CYP3A4 substrate (midazolam), and P-gp substrate (digoxin) were used from the Simcyp software library with models that were verified for their intended purpose.

[5] = Caco-2 passive permeability; format: in vitro ADME; conditions: human, Caco-2, pH 6.5; internal data; read-out: Papp Caco-2 passive permeability (pH6.5:7.5)
Source text: Many of the physicochemical properties and plasma protein binding data were obtained internally and also referenced from FDA documents [9], which are available from the FDA website.

[6] = test system: CYP3A4; assay: in vitro; conditions: human, freshly isolated, cultured human hepatocytes
Experimental: as §1, §2

[7] = target: P-gp (human MDR1) (Homo sapiens, UniProt P08183); assay: In vitro P-gp inhibition: 3H-digoxin permeation across control and MDR1-expressing LLC-PK1 cell monolayers
P-gp (human MDR1), sequence (P08183 whole entry): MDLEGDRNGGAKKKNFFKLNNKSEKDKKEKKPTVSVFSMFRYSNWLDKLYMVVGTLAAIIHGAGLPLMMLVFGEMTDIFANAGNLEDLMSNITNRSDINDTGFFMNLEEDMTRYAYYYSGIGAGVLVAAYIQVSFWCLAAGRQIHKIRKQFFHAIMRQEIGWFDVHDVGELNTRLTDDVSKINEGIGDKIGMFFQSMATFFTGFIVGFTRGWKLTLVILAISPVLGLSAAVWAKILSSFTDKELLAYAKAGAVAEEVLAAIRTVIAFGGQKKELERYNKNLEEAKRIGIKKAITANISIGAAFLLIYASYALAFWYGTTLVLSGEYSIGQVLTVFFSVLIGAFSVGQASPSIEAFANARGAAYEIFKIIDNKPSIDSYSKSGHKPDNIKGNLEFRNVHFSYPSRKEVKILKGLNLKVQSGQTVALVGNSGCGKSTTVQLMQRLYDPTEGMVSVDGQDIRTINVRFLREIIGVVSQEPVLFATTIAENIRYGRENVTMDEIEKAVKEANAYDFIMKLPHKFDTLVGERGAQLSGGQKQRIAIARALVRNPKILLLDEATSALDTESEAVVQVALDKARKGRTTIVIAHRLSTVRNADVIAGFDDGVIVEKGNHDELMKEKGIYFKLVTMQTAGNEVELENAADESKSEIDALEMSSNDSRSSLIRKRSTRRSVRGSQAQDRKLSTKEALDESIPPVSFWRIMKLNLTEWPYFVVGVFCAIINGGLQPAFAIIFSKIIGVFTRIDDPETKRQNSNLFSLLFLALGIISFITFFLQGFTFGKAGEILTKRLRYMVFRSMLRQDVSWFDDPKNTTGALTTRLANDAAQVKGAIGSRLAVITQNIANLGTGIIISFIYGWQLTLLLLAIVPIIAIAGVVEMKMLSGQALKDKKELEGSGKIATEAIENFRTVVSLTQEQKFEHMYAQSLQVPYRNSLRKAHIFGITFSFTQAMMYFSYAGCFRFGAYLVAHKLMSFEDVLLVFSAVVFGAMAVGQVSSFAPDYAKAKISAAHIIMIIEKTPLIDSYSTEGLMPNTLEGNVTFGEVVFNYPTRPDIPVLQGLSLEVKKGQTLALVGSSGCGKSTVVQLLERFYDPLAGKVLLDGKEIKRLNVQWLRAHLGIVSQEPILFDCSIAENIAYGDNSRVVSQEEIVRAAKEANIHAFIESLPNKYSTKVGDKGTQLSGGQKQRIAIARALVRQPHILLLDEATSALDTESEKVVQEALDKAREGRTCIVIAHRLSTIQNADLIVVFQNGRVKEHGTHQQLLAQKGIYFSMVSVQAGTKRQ
Experimental: MDR1-expressing cells (porcine kidney epithelial LLC-PK1 cells transfected with human MDR1 cDNA) was used. The MDR1-expressing cells were seeded at a density of 4 × 10^4 cells/insert in plates and were incubated in a CO2 incubator (37 °C, CO2: 5%) for 7 to 9 days to prepare cell monolayers. […] After incubation for 4 h at 37 °C, a 70-μL aliquot of the incubation solutions was collected as the analytical sample from the opposite compartment of that spiked with test solutions (receiver compartment). The collected samples were immediately combined with 10 mL of scintillator, and the radioactivity was counted using the LSC. Permeability coefficient (Papp) of ^3H-digoxin was calculated using the following equation: Pappcm/sec=[dQ/dt]/A/C0 where dQ/dt is the transport rate (dpm/sec); A is the membrane area (cm^2); C0 is the initial concentration (dpm/mL). The ratio of permeability coefficient (Papp ratio) was calculated from the basal to apical Papp and apical to basal Papp according to the following equation: Pappratio=BasaltoapicalPapp/ApicaltobasalPapp
Furthermore, the ratios of the Papp ratios in MDR1-expressing cells to the Papp ratios in control cells were calculated as corrected Papp ratio according to the following equation: CorrectedPappratio=PappratiooftheMDR1expressingcells/Pappratioofthecontrolcells
The % of control was calculated from the corrected Papp ratio according to the following equation: \% \,of\,control=CorrectedPappratio\,in\,the\,absence\,or\,presence\,of\,inhibitors/CorrectedPappratio\,in\,the\,absence\,of\,inhibitors×100

[8] = design: method as in FDA CP review; conditions: ref FDA CP review; cited from earlier work
[9] = target: CYP3A4 (Homo sapiens, UniProt P08684); assay: In vitro CYP3A4 inhibition (internal data); format: biochemical
CYP3A4 (Homo sapiens, UniProt P08684), sequence (P08684 whole entry): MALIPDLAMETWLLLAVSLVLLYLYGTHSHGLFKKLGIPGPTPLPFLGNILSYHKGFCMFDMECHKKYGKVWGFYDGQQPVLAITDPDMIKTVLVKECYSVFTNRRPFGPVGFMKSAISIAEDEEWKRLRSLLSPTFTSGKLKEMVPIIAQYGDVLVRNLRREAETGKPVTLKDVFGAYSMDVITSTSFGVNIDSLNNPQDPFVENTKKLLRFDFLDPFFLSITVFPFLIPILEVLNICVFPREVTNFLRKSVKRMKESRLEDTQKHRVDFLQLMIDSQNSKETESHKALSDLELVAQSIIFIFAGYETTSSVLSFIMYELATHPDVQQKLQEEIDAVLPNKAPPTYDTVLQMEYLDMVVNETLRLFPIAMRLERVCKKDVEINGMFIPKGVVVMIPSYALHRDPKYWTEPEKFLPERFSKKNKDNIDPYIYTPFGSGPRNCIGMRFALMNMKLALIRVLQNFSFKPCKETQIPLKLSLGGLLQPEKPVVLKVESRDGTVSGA

[10] = target: T1, OAT3 (Homo sapiens, UniProt Q8TCC7); assay: In vitro OAT3 inhibition (internal data); format: cell-based
T1 sequence (Q8TCC7 1-542): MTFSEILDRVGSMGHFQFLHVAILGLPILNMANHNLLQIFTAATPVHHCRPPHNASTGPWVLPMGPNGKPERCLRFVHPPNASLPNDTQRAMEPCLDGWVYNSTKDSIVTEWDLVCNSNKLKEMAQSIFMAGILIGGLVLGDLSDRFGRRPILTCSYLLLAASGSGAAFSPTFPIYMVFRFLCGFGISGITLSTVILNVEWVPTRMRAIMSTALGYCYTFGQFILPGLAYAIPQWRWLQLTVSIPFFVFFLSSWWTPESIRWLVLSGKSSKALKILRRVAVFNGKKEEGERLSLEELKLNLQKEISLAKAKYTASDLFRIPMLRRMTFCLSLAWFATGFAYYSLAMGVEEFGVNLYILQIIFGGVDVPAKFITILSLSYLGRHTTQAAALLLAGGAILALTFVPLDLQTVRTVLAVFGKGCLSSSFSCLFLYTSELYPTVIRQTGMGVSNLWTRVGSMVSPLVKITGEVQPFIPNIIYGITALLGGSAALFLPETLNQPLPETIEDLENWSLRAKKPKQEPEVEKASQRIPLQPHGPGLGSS

[11] = target: CYP3A5 (Homo sapiens, UniProt P20815); assay: In vitro CYP3A5 inhibition (internal data); format: biochemical
CYP3A5, sequence (P20815 whole entry): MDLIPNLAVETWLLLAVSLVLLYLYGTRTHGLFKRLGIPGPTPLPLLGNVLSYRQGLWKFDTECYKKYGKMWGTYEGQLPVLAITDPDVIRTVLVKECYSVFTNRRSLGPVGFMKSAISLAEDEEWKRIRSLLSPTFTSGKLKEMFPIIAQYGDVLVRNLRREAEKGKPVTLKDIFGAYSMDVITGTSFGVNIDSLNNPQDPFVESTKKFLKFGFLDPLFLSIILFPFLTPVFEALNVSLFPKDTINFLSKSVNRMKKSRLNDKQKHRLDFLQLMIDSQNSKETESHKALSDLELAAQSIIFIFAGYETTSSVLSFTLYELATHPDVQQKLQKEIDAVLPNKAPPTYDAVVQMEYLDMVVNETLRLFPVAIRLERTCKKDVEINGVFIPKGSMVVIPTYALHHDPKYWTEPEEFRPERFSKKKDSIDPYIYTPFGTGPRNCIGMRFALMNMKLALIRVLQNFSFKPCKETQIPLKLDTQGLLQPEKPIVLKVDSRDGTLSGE

[12] = plasma; ref FDA CP review; cited from earlier work
[13] = clinical; conditions: human, plasma, po, 160 mg; for Cmax: observed, mean
[14] = test system: CYP3A4; conditions: calibrated with positive control rifampicin; Simcyp input
Experimental: as §1, §2

[15] = cited from earlier work
[16] = test system: P-gp and CYP3A; conditions: rivaroxaban; cited from earlier work
[17] = test system: CYP3A and P-gp; design: method as in PMID 33030266; conditions: assumed in model development, verified with clinical DDI studies; cited from earlier work
[18] = retrograde calculation from CLpo 0.60 L/h

Fold increase CYP1A2 mRNA [1]: 46.4 ± 7.2 fold
SMILES: COc1ccc2[nH]c([S+]([O-])Cc3ncc(C)c(OC)c3C)nc2c1 (centres unmarked) [Omeprazole, omeprazole, reference compound]
Fold increase P-gp mRNA [2]: 2.38 ± 1.68 fold

Cmin, observed [3]: 12000 ng/mL | CYP3A4 CLint for M2 formation ([4]; PBPK model parameter, see text): 0.002312 mL/min/pmol enzyme | Peff,man ([4]; calculated from Caco-2 passive permeability calibrated to propranolol): 5.15 10^–4 cm/s | Contribution of CYP2C8 on enzalutamide elimination ([4]; estimated from clinical DDI study with gemfibrozil): 87% | CYP2C8 CLint for M2 formation [4, 18]: 0.1518 mL/min/pmol enzyme | CYP2C8 CLint for other pathway [4, 18]: 0.07475 mL/min/pmol enzyme | CYP3A4 CLint for other pathway [4, 18]: 0.003617 mL/min/pmol enzyme | Papp [5]: 31 ×10⁻⁶ cm/s | pEC50 [6]: 5.82 | pIC50 [7]: 5.78 | pKi [7]: 5.78 | pKi [9]: 4.38 | pKi [10]: 4.82 | pKi [11]: 4.38 | AUC [13]: 322 µg·h/mL | AUC(0-inf) [13]: 288 µg·h/mL | Tmax [13]: 0.75 h | half-life [13]: 77.7 h | Cmax ([13]; once-daily oral 160 mg enzalutamide for 49 days): 16600 ng/mL | Cmax ([13]; single oral 160 mg enzalutamide): 5660 ng/mL | Indmax on CYP3A4, calibrated [14]: 11.43
SMILES: CNC(=O)c1ccc(N2C(=S)N(c3ccc(C#N)c(C(F)(F)F)c3)C(=O)C2(C)C)cc1F [Enzalutamide]
Log P [8]: 2.98 | fu [12]: 0.0244 | Vss ([15]; PBPK model parameter): 0.967 L/kg | Estimated bioavailability based on mass balance data ([15]; oral): ≥ 84%

SMILES: O=C(NC[C@H]1CN(c2ccc(N3CCOCC3=O)cc2)C(=O)O1)c1ccc(Cl)s1 [Rivaroxaban, rivaroxaban]
Decrease in AUC by rifampicin [16]: 49% | Contribution of CYP3A to hepatic metabolism [17]: 61%
